Data published in paper PMC12692036, “Multi-Target Screening of Anti-Diabetic and Antioxidant Potential Bioactive Constituents from Dandelion” (Foods, 2025).

How the values were obtained:
α-amylase [1] = molecular target: T1, α-amylase (Sus scrofa, UniProt P00690); assay: α-Amylase inhibitory activity (DNS method); format: biochemical, porcine; settings: mean ± SD, n = 3
T1 construct: purchased Adamas-beta Reagents Co., Ltd. (Shanghai, China); host or cells: porcine pancreas
T1 sequence (P00690 16-511): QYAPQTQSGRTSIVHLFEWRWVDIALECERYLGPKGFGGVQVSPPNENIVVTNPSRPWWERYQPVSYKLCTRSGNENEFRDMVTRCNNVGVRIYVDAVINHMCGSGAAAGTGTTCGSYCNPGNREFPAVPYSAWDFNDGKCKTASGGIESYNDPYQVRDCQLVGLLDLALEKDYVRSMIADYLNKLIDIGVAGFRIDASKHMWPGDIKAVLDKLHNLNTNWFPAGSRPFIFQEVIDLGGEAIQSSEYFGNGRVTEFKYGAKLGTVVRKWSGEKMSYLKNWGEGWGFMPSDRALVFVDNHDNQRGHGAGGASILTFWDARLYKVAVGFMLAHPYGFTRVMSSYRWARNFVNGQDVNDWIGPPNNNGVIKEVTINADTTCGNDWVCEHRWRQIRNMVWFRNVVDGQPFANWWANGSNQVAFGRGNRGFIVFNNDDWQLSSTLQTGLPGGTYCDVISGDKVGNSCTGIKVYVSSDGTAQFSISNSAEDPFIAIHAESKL
Protocol: α-Amylase inhibitory activity was examined based on a modified method described previously. Firstly, 200 µL of sample test solution and 100 µL of 1 U·mL^−1 α-amylase solution were transferred into 5 mL centrifuge tube, and incubated in a 37 °C constant temperature water bath for 10 min. Secondly, 200 µL of 1% starch solution was added and incubated in a 37 °C constant temperature water bath for 5 min. Thirdly, 500 µL of DNS reagent was prepared, added, immersed and reacted in boiling water for 5 min [7]. Subsequently, the reaction solution was removed from boiling water and cooled for 10 min. Finally, 200 µL of the reaction solution was transferred into a 96-well microplate, and measured its absorbance value at a wavelength of 540 nm by ReadMax1200 microplate reader. Each experiment was conducted in triplicate.

α-glucosidase [2] = assay: α-Glucosidase inhibitory activity (pNPG); format: biochemical, Saccharomyces cerevisiae; settings: mean ± SD, n = 3
Protocol: α-Glucosidase inhibitory activity was examined based on a modified method described previously. […] Then, 40 μL of 5 mmol·L^−1 pNPG was added, and the reaction was for an additional 15 min. Finally, 80 μL of 1 mol·L^−1 sodium carbonate was added to terminate the reaction, and measured its absorbance value at a wavelength of 405 nm by ReadMax1200 microplate reader (Shanpu, Shanghai, China). Each experiment was conducted in triplicate. […] The IR was calculated according to Equation (1) in Section 2.5.1.

[3] = DPPH radical scavenging capacity; settings: mean ± SD, n = 3
Protocol: This method had been slightly modified according to the literature. Firstly, 10 μL of sample test solution and 190 μL of 0.1 mmol·L^−1 DPPH working solution were added to a 96-well microplate, shaken well, and reacted in the dark for 30 min. The absorbance at 517 nm was measured by ReadMax1200 microplate reader. The positive control was Trolox and Vc, and the blank control was anhydrous ethanol, with each experiment conducted in triplicate. The standard curve was plotted to obtain the linear regression equation. […] The TEAC values were calculated from the standard curve of Trolox and expressed as millimoles of Trolox equivalents per gram of sample (mmol TE/g).

[4] = ABTS radical scavenging capacity; settings: mean ± SD, n = 3
Protocol: This method had been slightly modified according to the literature. Firstly, 1.32 mg·mL^−1 potassium persulfate and 3.84 mg·mL^−1 ABTS^+• were mixed in a volume ratio of 1:1 to obtain the ABTS^+• mother liquor. The ABTS^+• mother liquor was stored in a dark environment for 12–16 h, diluted with ethanol, and adjusted to an absorbance range of 0.695 ± 0.705 at 734 nm to obtain an ABTS^+• working solution. Secondly, 100 μL of sample test solution and 190 μL ABTS^+• working solution were added to a 96-well microplate, shaken well, and reacted in the dark for 30 min. Finally, the absorbance at 734 nm was measured by ReadMax1200 microplate reader. The positive control was Trolox and Vc, and the blank control was anhydrous ethanol, with each experiment conducted in triplicate. The ABTS radical scavenging capacities were also expressed as IC50 and TEAC values, calculating according to Section 2.6.1. The standard curve was plotted to obtain the linear regression equation. The ABTS RCR was calculated as follows: (3) ABTS RCR=AABTS−ASample/AABTS×100% where AABTS and ASample were the absorbance values of blank control and sample, respectively.

[5] = FRAP iron ion reduction capacity; settings: mean ± SD, n = 3
Protocol: This method had been slightly modified according to the literature. Firstly, 40 mmol·L^−1 HCl, 100 mmol·L^−1 FeSO4, 20 mmol·L^−1 FeCl3, 0.3 mol·L^−1 acetic acid sodium acetate buffer, and 10 mmol·L^−1 TPTZ were carefully prepared, respectively. Secondly, the TPTZ working solution was prepared by mixing 20 mmol·L^−1 FeCl3, 0.3 mol·L^−1 acetic acid sodium acetate buffer, and 10 mmol·L^−1 TPTZ in a volume ratio of 1:10:1. Thirdly, 100 μL of sample test solution and 190 μL TPTZ working solution were added to a 96-well microplate, shaken well, and reacted at room temperature for 10 min. Finally, the absorbance at 593 nm was measured by ReadMax1200 microplate reader. The positive control was Trolox and Vc, and the blank control was anhydrous ethanol, with each experiment conducted in triplicate. The FRAP assay results were quantified by extrapolating the absorbance values to the ferrous sulfate standard curve, with the antioxidant capacity expressed as millimolar ferrous ion equivalents per gram of dry sample weight (mmol Fe^2+·g^−1). The FRAP iron ion reduction capacities were also expressed as TEAC values, calculated according to Section 2.6.1.

α-amylase [6] = molecular target: T1, α-amylase; assay: Affinity ultrafiltration MTAUF-UPLC-MS/MS of DE with α-amylase; format: binding, porcine; settings: peak area with active / inactivated enzyme; DE 5.0 mg·mL^−1
Protocol: (§1) Based on hypoglycemic inhibitory activities, potential inhibitors in the DE extract were screened using the MTAUF-UPLC-MS/MS method, as previously described. Firstly, α-amylase or α-glucosidase enzymes were inactivated by heating in boiling water for 20 min. Secondly, 100 µL of DE sample (5.0 mg·mL^−1 in PBS, pH = 6.8), 20 µL of either 2 U·mL^−1 active or inactivated enzyme, and 190 µL PBS were mixed, shaken well, and incubated at 37 °C for 60 min. […] This step was repeated 3 times. […] This step was also repeated 3 times. The resulting solution was dried and reconstituted in 50 µL methanol for further UPLC-QTOF-MS/MS analysis.

α-glucosidase [7] = assay: Affinity ultrafiltration MTAUF-UPLC-MS/MS of DE with α-glucosidase; format: binding, Saccharomyces cerevisiae; settings: peak area with active / inactivated enzyme; DE 5.0 mg·mL^−1
Protocol: as §1

Row | SMILES | IC50 of α-amylase inhibitory activity (α-amylase [1]) | IC50 of α-glucosidase inhibitory activity (α-glucosidase [2]) | DPPH radical scavenging capacity IC50 [3] | ABTS radical scavenging capacity IC50 [4] | iron ion reducing capacity, equivalent concentration of ferrous ions (FRAP) [5] | relative binding affinity (RBA) toward α-amylase (α-amylase [6]) | relative binding affinity (RBA) toward α-glucosidase (α-glucosidase [7]) | IC50 (α-amylase [1])
1 | O=C(/C=C/c1ccc(O)c(O)c1)O[C@H]1[C@H](O)C[C@](O)(C(=O)O)C[C@H]1OC(=O)/C=C/c1ccc(O)c(O)c1 [Compound 2, isochlorogenic acid C] | 254.00 ± 0.78 µg/mL | 84.84 ± 4.31 µg/mL | 5.55 ± 0.02 µg/mL | 3.01 ± 0.03 µg/mL | 107.35 ± 3.42 mmol Fe^2+·g^−1 | 1.71 ± 0.07 | less than 1 | 
2 | O=C(O)c1ccc(O)cc1 [Compound 3, 4-hydroxybenzoic acid] |  |  |  |  |  | less than 1 | 2.47 ± 0.07 | 
3 | COc1cc(/C=C/C(=O)O)ccc1O [Compound 5, ferulic acid] |  |  | 6.11 ± 0.06 µg/mL | 1.20 ± 0.00 µg/mL |  | 1.08 ± 0.05 | 1.35 ± 0.05 | 
4 | COc1ccc(C=CC(=O)O)cc1OC [Compound 6, 3,4-dimethoxy cinnamic acid] |  |  |  |  |  | 1.05 ± 0.02 | less than 1 | 
5 | O=c1cc(-c2ccc(O)c(O)c2)oc2cc(O)cc(O)c12 [Compound 7, luteolin] |  |  | 1.96 ± 0.05 µg/mL | 2.47 ± 0.05 µg/mL |  | 1.83 ± 0.07 | less than 1 | 
6 | O=c1c(O)c(-c2ccc(O)c(O)c2)oc2cc(O)cc(O)c12 [Compound 8, quercetin] |  |  | 4.23 ± 0.04 µg/mL | 2.12 ± 0.02 µg/mL | 56.40 ± 1.81 mmol Fe^2+·g^−1 |  |  | 
7 | O=c1c(-c2ccc(O)cc2)coc2cc(O)cc(O)c12 [Compound 13, genistein] |  |  |  | 18.26 ± 0.52 µg/mL |  | 1.15 ± 0.09 | 1.60 ± 0.03 | 
8 | O=c1cc(-c2ccc(O)cc2)oc2cc(O)cc(O)c12 [Compound 14, apigenin] |  | 35.99 ± 0.42 µg/mL |  |  |  | 1.48 ± 0.03 | 1.54 ± 0.03 | 
9 | O=c1c(O)c(-c2ccc(O)cc2)oc2cc(O)cc(O)c12 [Compound 15, kaempferol] |  |  | 5.18 ± 0.02 µg/mL | 3.93 ± 0.04 µg/mL | 57.56 ± 1.33 mmol Fe^2+·g^−1 |  |  | 99.5 µM
10 | COc1cc(-c2cc(=O)c3c(O)cc(O)cc3o2)cc(OC)c1O[C@H](CO)[C@@H](O)c1ccc(O)cc1 [Compound 17, calquiquelignan D] |  |  |  |  |  | less than 1 |  | 
11 | COc1cc(-c2cc(=O)c3c(O)cc(O)cc3o2)cc(OC)c1O [Compound 18, tricin] |  |  |  |  |  | less than 1 |  | 
12 | O=c1cc(-c2ccccc2)oc2cc(O)cc(O)c12 [Compound 24, chrysin] |  |  |  |  |  | 1.66 ± 0.08 | 1.64 ± 0.05 | 
13 | O=C1C[C@@H](c2ccccc2)Oc2cc(O)cc(O)c21 [Compound 25, pinocembrin] |  |  |  |  |  | 1.53 ± 0.06 | 1.11 ± 0.03 | 
14 | COc1cc(O)c2c(=O)cc(-c3ccc(O)cc3)oc2c1 [Compound 27, genkwanin] |  |  |  |  |  | 2.13 ± 0.07 | 2.09 ± 0.06 | 
15 | C=C1CC[C@]2(C)CC[C@]3(C)[C@H](CC[C@@H]4[C@@]5(C)CC[C@H](O)C(C)(C)[C@@H]5CC[C@]43C)[C@H]2[C@@H]1C [Compound 48, taraxasterol] |  |  |  |  |  | less than 1 | 1.46 ± 0.09 | 
